Measured values published in patent US20260078454A1, “MULTIPLE ANTIBIOTIC BACTERIAL RESPONSE” (priority 2022, published 2026).

Legend:
Acinetobacter baumannii = format: cell-based; settings: for differentially expressed transcripts in common between amikacin and gentamicin: 3.5 hours of exposure; for number of differentially expressed transcripts: pan-susceptible strain, MIC breakpoint, vs no-antibiotic control
Protocol: A pan-susceptible Acinetobacter baumannii was cultured and exposed to each of the nine conditions (including a no-antibiotic control) above as a single-exposure condition, meaning only one antibiotic per sample, no combination of drugs. Antibiotics were dosed at the resistance break point concentration (MIC breakpoint) for each compound according to the 2023 CLSI M100 guidelines. Antibiotic-treated and control cultures were maintained for 0.5 hours, 1.5 hours, 2.5 hours, and 3.5 hours and subsequently harvested to conduct RNA-seq, as discussed above in Example 3. Multiple replicates of this experimental set-up were performed to assess variance of the transcriptional response.
Cultures at the appropriate OD595 were transferred to a 37° C. incubator until the OD595 was between 0.9-1.4. The culture was distributed into individual treatment tubes containing antibiotics (or not for the control condition) and incubated at 37° C. for the specified exposure times (0.5, 1.5, 2.5, 3.5 hrs). At each timepoint, an aliquot of each of the treated and control culture conditions was removed and nucleic acid was extracted on the bioMérieux EMAG platform. […] The nucleic acid extracts were then treated with DNAse to remove all genomic DNA and extracted a second time, resulting in a pure RNA sample for each condition. These RNA samples were sent to the High-Throughput Genomics Core at the Huntsman Cancer Institute at the University of Utah for RNA-sequencing on the Illumina NovaSeq 6000 platform. A total of five biological replicates were made, which would result in 180 RNA-seq samples (36*5), although due to some instrument difficulties an actual total of 161 samples were sent to the sequencing core lab.
Differential expression analysis of RNA-seq read data is as follows. Read data was adapter and quality trimmed using bbduk (bbmap_38.86). Adapter and quality trimmed reads (fastq) were mapped to an Acinetobacter baumannii genome using Kallisto (Kallisto v0.48.0) to generate read counts for each annotated transcript in the genome. Read count data (all conditions) were normalized using Sleuth (0.30.1) and differential expression tests conducted between each independent antibiotic exposure condition and the no-antibiotic time matched control using the lrt test within Sleuth using a qvalue significance cutoff of 0.05 to determine differential expression. Lists of differentially expressed transcripts for each antibiotic and each timepoint were generated and aggregated according to the MOA classes (see prior) to determine if there was significant overlap in the transcriptional response to each MOA class of antibiotics.

Pseudomonas aeruginosa = assay: RNA-seq differential expression after single and combined antibiotic exposure; format: cell-based; settings: pan susceptible strain; CLSI resistance break point concentration; 60 minutes; regardless of whether the other two antibiotics were present
Protocol: RNA-sequencing (“RNA-seq”) was conducted using two strains of Pseudomonas aeruginosa: one a resistant strain and the second a pan susceptible strain. The strains were cultured to an optical density of 1.0, or approximately 1.5×10^9 genomic copies/mL (measured using digital PCR). The culture was then aliquoted into four independent culture tubes, three of which contained one single antibiotic and the fourth was a no-antibiotic control. Once mixed with antibiotics, where each antibiotic was dosed at its CLSI resistance break point concentration based upon 2021 guidance, the culture aliquots were returned to an incubator set to 37° C. using ambient air and agitated using orbital mixing for 60 minutes. […] Recovered reads were processed through an internal RNA-seq bioinformatics pipeline that includes the following steps: read quality and adapter trimming, surviving reads were assigned a genomic position in the reference P. aeruginosa genome PA01 using Kallisto (and read counts with dispersion estimates calculated), and differential expression analysis comparing each antibiotic treatment with the no-antibiotic control data set were conducted using Sleuth for each strain. […]

Molecule	differentially expressed transcripts in common between amikacin and gentamicin (Acinetobacter baumannii) [%]	number of differentially expressed transcripts (Acinetobacter baumannii; 0.5 hrs of exposure)	regulation of antibiotic specific response transcripts (Pseudomonas aeruginosa)	overlap of gentamicin response with amikacin response (Acinetobacter baumannii; 0.5 hrs of exposure)
NCC[C@H](O)C(=O)N[C@@H]1C[C@H](N)[C@@H](O[C@H]2O[C@H](CN)[C@@H](O)[C@H](O)[C@H]2O)[C@H](O)[C@H]1O[C@H]1O[C@H](CO)[C@@H](O)[C@H](N)[C@H]1O [amikacin]	93.2	1825		
C[C@@H](O)[C@H]1C(=O)N2C(C(=O)O)=C(S[C@@H]3CN[C@H](C(=O)N(C)C)C3)[C@H](C)[C@H]12 [meropenem]			up regulation of five transcripts	
C[C@H]1COc2c(N3CCN(C)CC3)c(F)cc3c(=O)c(C(=O)O)cn1c23 [levofloxacin]		1394		
gentamicin	93.2	6	up regulation of eight transcripts	fully contained within the amikacin response
